Reference: patent US6962924B2, “Salt and polymorphs of desloratadine hemifumarate” (priority 2002, dated 2005)

Key:
[1] = Hygroscopicity (moisture absorption) in DVS; format: physicochemical; conditions: relative humidity (RH) of 90%
[2] = Stability of the polymorphic form (vacuum at 50° C., crushing); format: physicochemical
[3] = mixed with three volumes of lactose monohydrate, 40° C. and 75% RH, one week

Row | SMILES | moisture absorption value ([1]; listed as desloratadine polymorphic form 1) [%] | Change of polymorphic form under vacuum at 50° C. [2] | Appearance after stress storage (color, crystallinity, texture) [3] | moisture absorption value [1] [%] | moisture absorption value ([1]; listed as Desloratadine hemifumarate polymorphic form 2) [%]
1 | Clc1ccc2c(c1)CCc1cccnc1C2=C1CCNCC1.Clc1ccc2c(c1)CCc1cccnc1C2=C1CCNCC1.O=C(O)C=CC(=O)O [Desloratadine hemifumarate (polymorph 1), Descarbonylethoxyloratadine Hemifumarate] | 0.9 | can be changed to polymorphic form 2 | retained its crystallinity, color and the texture | – | –
2 | Clc1ccc2c(c1)CCc1cccnc1C2=C1CCNCC1 [Standard desloratadine, 8-chloro-6,11-dihydro-11-(4-piperidylidene)-5H-benzo[5,6]-cyclohepta[1,2-b]pyridine, reference compound] | – | – | showed discoloration | 0.3 | –
3 | Clc1ccc2c(c1)CCc1cccnc1C2=C1CCNCC1.Clc1ccc2c(c1)CCc1cccnc1C2=C1CCNCC1.O=C(O)C=CC(=O)O [Desloratadine hemifumarate (polymorph 2), Descarbonylethoxyloratadine Hemifumarate] | – | – | retained its crystallinity, color and the texture | – | 0.3
